Test system: Clostridium acetobutylicum strain ATCC 824
Assay: Sequential batch transfer in 24-well culture plates (butanol, residual glucose, butanol yield and productivity)
Format: cell-based
Details: after 96 hours of culture; for Residual glucose concentration: initial glucose 60 g/L
Experimental: Each well contained 1.5 mL of growth medium. Peptide was added to each well at the indicated concentration (0, 25, 50, and 100 nM). Every 24 hours fresh medium and peptide treatment were added to a new column of wells then 1.5 μL of the previous day culture was transferred to the new well. Wells were harvested for glucose and butanol analysis after 96 hours of growth. Transfers 1, 4, 7, 10, 13, 16, […].
Briefly, Clostridium spores were germinated in a suitable growth medium for 18-24 hours then […] was transferred to 1.5 mL of fresh medium in each of four wells on a 24-well culture plate. Three of the wells had been treated with 25 nM, 50 nM and 100 nM of peptide, respectively while the fourth well was untreated. Thereafter, every 24 hours […] of each subculture was transferred to 1.5 mL of fresh medium that contained the same peptide treatment or no treatment. Transfers of successive subcultures were done for 24 days, and each subculture was grown for 96 hours before being harvested. Culture supernatants were recovered following centrifugation and were analyzed for butanol and residual glucose concentrations. Determination of optimum peptide treatment levels was based on a graphical comparison of the concentration of butanol in each of the four culture wells for sequential transfers 1, 4, 7, 10, 13, 16, 19, 22 and 24.
Clostridium acetobutylicum strain ATCC 824 was used in all experiments and the growth medium used for sequential batch transfer, time course, and continuous culture experiments contained yeast extract, casamino acids, L-cysteine, L-asparagine, phosphate buffer, trace minerals, and 6% glucose. What are believed to be quorum-sensing peptides that were used in the experiments were chemically synthesized peptides SEQ ID NO: 143 (amino acid sequence: SYPGWSW) and SEQ ID NO: 144 (amino acid sequence: ILILISG). Routine growth of the bacteria as well as the sequential batch and time course experiments were conducted in a Form a Scientific Model 1029 anaerobic gas chamber at 32° C. Continuous cultures were performed at 32° C. using duplicate New Brunswick Scientific BioFlo 3000 apparati with a dilution rate of 0.01 volume per hour, 75 rpm agitation, and nitrogen gas sparging. Optical density of culture samples was measured at 600 nm in a Beckman DU 600 series spectrophotometer and glucose was analyzed using a YSI Model 2700 Select Biochemistry Analyzer with internal glucose calibration. Butanol concentrations were determined by measuring experimental and standard samples using a Varian Saturn 3 Gas Chromatograph/Mass Spectrometer and calculating butanol concentrations using standard curves.
(§1) Sequential batch transfer experiments were carried out in 24-well culture plates that contained 1.5 mL of medium per well. Peptide was added to each well at the indicated concentrations of 0 nM (control), 25 nM, 50 nM, or 100 nM. Every 24 hours, fresh medium and peptide treatments were added to a new column of wells. Then, 1.5 uL of the previous day culture was transferred to the new well. Wells were harvested for glucose and butanol analysis after 96 hours of growth; transfers 1, 4, 7, 10, 13, 16, 19, 22, and 24 were analyzed. Two representative experiments are shown in Tables 30 and 31 and FIGS. 14 and 15.
as §1, with “32” for “30”, “33” for “31”, “16” for “14”, “17.” for “15.”

[1] = 25 nM peptide, transfer 1, Expt. 1
[2] = 25 nM peptide, transfer 4, Expt. 1
[3] = 25 nM peptide, transfer 7, Expt. 1
[4] = 25 nM peptide, transfer 10, Expt. 1
[5] = 25 nM peptide, transfer 13, Expt. 1
[6] = 25 nM peptide, transfer 16, Expt. 1
[7] = 25 nM peptide, transfer 19, Expt. 1
[8] = 25 nM peptide, transfer 22, Expt. 1
[9] = 25 nM peptide, transfer 24, Expt. 1
[10] = 50 nM peptide, transfer 1, Expt. 1
[11] = 50 nM peptide, transfer 4, Expt. 1
[12] = 50 nM peptide, transfer 7, Expt. 1
[13] = 50 nM peptide, transfer 10, Expt. 1
[14] = 50 nM peptide, transfer 13, Expt. 1
[15] = 50 nM peptide, transfer 16, Expt. 1

Question: With “ILILISG (Derived from Clostridium acetobutylicum SEQ ID NO: 110) [peptide SEQ ID NO: 144]” as the substance, how does the Butanol concentration [1] read?
Answer: 1.93 g/L

Question: And the Butanol productivity [1]?
Answer: 0.02 g butanol/L-h

Question: And the Butanol yield [1]?
Answer: 0.03 g butanol/g/glucose

Question: And the Butanol concentration (25 nM peptide, transfer 1, Expt. 2 (repeat), Table 58)?
Answer: 1.25 g/L

Question: What about the Residual glucose concentration [1] of the same substance?
Answer: 43.3 g/L

Question: And the Residual glucose concentration (25 nM peptide, transfer 1, Expt. 2 (repeat), Table 45)?
Answer: 48.7 g/L

Question: What about the Butanol concentration [2] of the same substance?
Answer: 10.01 g/L

Question: What about the Butanol productivity [2] of the same substance?
Answer: 0.10 g butanol/L-h

Question: What about the Butanol yield [2] of the same substance?
Answer: 0.17 g butanol/g/glucose

Question: What about the Butanol concentration (25 nM peptide, transfer 4, Expt. 2 (repeat), Table 58) of the same substance?
Answer: 2.36 g/L

Question: And the Residual glucose concentration [2]?
Answer: 0.0 g/L

Question: And the Residual glucose concentration (25 nM peptide, transfer 4, Expt. 2 (repeat), Table 45)?
Answer: 43.6 g/L

Question: And the Butanol concentration [3]?
Answer: 7.82 g/L

Question: And the Butanol productivity [3]?
Answer: 0.08 g butanol/L-h

Question: And the Butanol yield [3]?
Answer: 0.13 g butanol/g/glucose

Question: What about the Butanol concentration (25 nM peptide, transfer 7, Expt. 2 (repeat), Table 58) of the same substance?
Answer: 2.26 g/L

Question: And the Residual glucose concentration [3]?
Answer: .01 g/L

Question: And the Residual glucose concentration (25 nM peptide, transfer 7, Expt. 2 (repeat), Table 45)?
Answer: 46.5 g/L

Question: What about the Butanol concentration [4] of the same substance?
Answer: 11.88 g/L

Question: And the Butanol productivity [4]?
Answer: 0.12 g butanol/L-h

Question: And the Butanol yield [4]?
Answer: 0.20 g butanol/g/glucose

Question: What about the Butanol concentration (25 nM peptide, transfer 10, Expt. 2 (repeat), Table 58) of the same substance?
Answer: 3.56 g/L

Question: What about the Residual glucose concentration [4] of the same substance?
Answer: 0.1 g/L

Question: What about the Residual glucose concentration (25 nM peptide, transfer 10, Expt. 2 (repeat), Table 45) of the same substance?
Answer: 42.5 g/L

Question: And the Butanol concentration [5]?
Answer: 7.56 g/L

Question: What about the Butanol productivity [5] of the same substance?
Answer: 0.08 g butanol/L-h

Question: And the Butanol yield [5]?
Answer: 0.13 g butanol/g/glucose

Question: And the Butanol concentration (25 nM peptide, transfer 13, Expt. 2 (repeat), Table 58)?
Answer: 9.51 g/L

Question: And the Residual glucose concentration [5]?
Answer: 0.1 g/L

Question: What about the Residual glucose concentration (25 nM peptide, transfer 13, Expt. 2 (repeat), Table 45) of the same substance?
Answer: 0.9 g/L

Question: What about the Butanol concentration [6] of the same substance?
Answer: 8.33 g/L

Question: What about the Butanol productivity [6] of the same substance?
Answer: 0.09 g butanol/L-h

Question: And the Butanol yield [6]?
Answer: 0.14 g butanol/g/glucose

Question: And the Butanol concentration (25 nM peptide, transfer 16, Expt. 2 (repeat), Table 58)?
Answer: 12.57 g/L

Question: And the Residual glucose concentration [6]?
Answer: 0.0 g/L

Question: And the Residual glucose concentration (25 nM peptide, transfer 16, Expt. 2 (repeat), Table 45)?
Answer: 0.1 g/L

Question: And the Butanol concentration [7]?
Answer: 7.52 g/L

Question: And the Butanol productivity [7]?
Answer: 0.08 g butanol/L-h

Question: And the Butanol yield [7]?
Answer: 0.12 g butanol/g/glucose

Question: And the Butanol concentration (25 nM peptide, transfer 19, Expt. 2 (repeat), Table 58)?
Answer: 4.42 g/L

Question: What about the Residual glucose concentration [7] of the same substance?
Answer: 0.1 g/L

Question: What about the Residual glucose concentration (25 nM peptide, transfer 19, Expt. 2 (repeat), Table 45) of the same substance?
Answer: 0.1 g/L

Question: And the Butanol concentration [8]?
Answer: 13.47 g/L

Question: What about the Butanol productivity [8] of the same substance?
Answer: 0.14 g butanol/L-h

Question: What about the Butanol yield [8] of the same substance?
Answer: 0.22 g butanol/g/glucose

Question: What about the Butanol concentration (25 nM peptide, transfer 22, Expt. 2 (repeat), Table 58) of the same substance?
Answer: 3.65 g/L

Question: What about the Residual glucose concentration [8] of the same substance?
Answer: 9.9 g/L

Question: And the Residual glucose concentration (25 nM peptide, transfer 22, Expt. 2 (repeat), Table 45)?
Answer: 0.1 g/L

Question: What about the Butanol concentration [9] of the same substance?
Answer: 7.27 g/L

Question: And the Butanol productivity [9]?
Answer: 0.08 g butanol/L-h

Question: And the Butanol yield [9]?
Answer: 0.12 g butanol/g/glucose

Question: What about the Butanol concentration (25 nM peptide, transfer 24, Expt. 2 (repeat), Table 58) of the same substance?
Answer: 2.75 g/L

Question: What about the Residual glucose concentration [9] of the same substance?
Answer: 0.0 g/L

Question: And the Residual glucose concentration (25 nM peptide, transfer 24, Expt. 2 (repeat), Table 45)?
Answer: 0.1 g/L

Question: What about the Butanol concentration [10] of the same substance?
Answer: 1.90 g/L

Question: What about the Butanol productivity [10] of the same substance?
Answer: 0.02 g butanol/L-h

Question: And the Butanol yield [10]?
Answer: 0.03 g butanol/g/glucose

Question: And the Butanol concentration (50 nM peptide, transfer 1, Expt. 2 (repeat), Table 58)?
Answer: 1.29 g/L

Question: What about the Residual glucose concentration [10] of the same substance?
Answer: 41.8 g/L

Question: What about the Residual glucose concentration (50 nM peptide, transfer 1, Expt. 2 (repeat), Table 45) of the same substance?
Answer: 47.4 g/L

Question: And the Butanol concentration [11]?
Answer: 9.57 g/L

Question: And the Butanol productivity [11]?
Answer: 0.10 g butanol/L-h

Question: And the Butanol yield [11]?
Answer: 0.16 g butanol/g/glucose

Question: What about the Butanol concentration (50 nM peptide, transfer 4, Expt. 2 (repeat), Table 58) of the same substance?
Answer: 2.24 g/L

Question: And the Residual glucose concentration [11]?
Answer: 0.0 g/L

Question: And the Residual glucose concentration (50 nM peptide, transfer 4, Expt. 2 (repeat), Table 45)?
Answer: 44.9 g/L

Question: What about the Butanol concentration [12] of the same substance?
Answer: 7.58 g/L

Question: What about the Butanol productivity [12] of the same substance?
Answer: 0.08 g butanol/L-h

Question: And the Butanol yield [12]?
Answer: 0.13 g butanol/g/glucose

Question: And the Butanol concentration (50 nM peptide, transfer 7, Expt. 2 (repeat), Table 58)?
Answer: 1.98 g/L

Question: What about the Residual glucose concentration [12] of the same substance?
Answer: 0.0 g/L

Question: What about the Residual glucose concentration (50 nM peptide, transfer 7, Expt. 2 (repeat), Table 45) of the same substance?
Answer: 49.8 g/L

Question: And the Butanol concentration [13]?
Answer: 11.09 g/L

Question: What about the Butanol productivity [13] of the same substance?
Answer: 0.12 g butanol/L-h

Question: And the Butanol yield [13]?
Answer: 0.18 g butanol/g/glucose

Question: What about the Butanol concentration (50 nM peptide, transfer 10, Expt. 2 (repeat), Table 58) of the same substance?
Answer: 2.26 g/L

Question: What about the Residual glucose concentration [13] of the same substance?
Answer: 0.0 g/L

Question: What about the Residual glucose concentration (50 nM peptide, transfer 10, Expt. 2 (repeat), Table 45) of the same substance?
Answer: 48.0 g/L

Question: What about the Butanol concentration [14] of the same substance?
Answer: 7.90 g/L

Question: What about the Butanol productivity [14] of the same substance?
Answer: 0.08 g butanol/L-h

Question: And the Butanol yield [14]?
Answer: 0.13 g butanol/g/glucose

Question: What about the Butanol concentration (50 nM peptide, transfer 13, Expt. 2 (repeat), Table 58) of the same substance?
Answer: 4.58 g/L

Question: What about the Residual glucose concentration [14] of the same substance?
Answer: 0.1 g/L

Question: What about the Residual glucose concentration (50 nM peptide, transfer 13, Expt. 2 (repeat), Table 45) of the same substance?
Answer: 49.1 g/L

Question: And the Butanol concentration [15]?
Answer: 9.34 g/L

Question: And the Butanol productivity [15]?
Answer: 0.10 g butanol/L-h

Question: What about the Butanol yield [15] of the same substance?
Answer: 0.15 g butanol/g/glucose

Question: And the Butanol concentration (50 nM peptide, transfer 16, Expt. 2 (repeat), Table 58)?
Answer: 3.34 g/L

Question: And the Residual glucose concentration [15]?
Answer: 0.0 g/L

Question: And the Residual glucose concentration (50 nM peptide, transfer 16, Expt. 2 (repeat), Table 45)?
Answer: 47.7 g/L

Source: patent US20150031102A1, “METHODS AND COMPOSITIONS FOR ENHANCED PRODUCTION OF BUTANOL BY CLOSTRIDIA” (Butrolix LLC, priority 2012, published 2015)
